{
  "source": "patent US7132554B2",
  "about": "“Therapeutic synergy of anti-cancer compounds” (Bristol-Myers Squibb Company, priority 2004, dated 2006)",
  "key": {"[1]": {"experiment": "Phase I clinical trial, weekly schedule of administration", "type": "in vivo, human", "from_the_text": "The preclinical activity of Compound Ia was observed using several different schedules, with an intermittent administration regimen being optimal in one carefully examined tumor model. […] Heavily pretreated patients, typically having received two or three prior chemo/radiotherapies, have responded to weekly Compound Ia. All but one of the several responding patients had NSCLC, and all but one of these had previously received either a parenteral taxane or a small molecule anti-EGFR compound, gefitinib, or both. The purpose of our current investigations was to evaluate this oral taxane versus preclinical human tumor models using a multiple administration treatment regimen, in combination with an inhibitor of EGFR."}, "[2]": {"experiment": "Tolerability (body weight change, deaths, MTD) in nude mice bearing GEO tumors", "type": "in vivo", "description": "(§1) Compounds. The oral taxane (Ia) was synthesized by Bristol-Myers Squibb (BMS) chemists. The compound was dissolved initially in equal portions of Cremophor EL and ethanol, followed by aqueous dilution to yield final ethanol and Cremophor EL concentrations of 10%.\n(§2) Animals. Athymic (“nude”) mice, 5–6 weeks of age, purchased from Harlan Sprague Dawley (Indianapolis, Ind.), were quarantined for ˜2 weeks before their use for tumor propagation and drug efficacy testing. They were fed food and water ad libitum. All studies involving these animals were conducted in accordance with NIH (Bethesda, Md.) and Bristol Myers-Squibb animal care and use guidelines.\n(§3) Definitions of MTD and OD have been published previously in the above-noted article. Therapeutic results were reported at the OD, i.e., that yielding the best effect without exceeding the MTD. Therapeutic synergy represents a therapeutic effect achieved with a tolerated regimen of a combination treatment that exceeds the optimal effect achieved at any tolerated dose of monotherapy associated with the same drugs used in the combination. Cured mice are defined as those whose tumors are ≦35 mg when assessed 10 tumor volume doubling times (based on control tumor growth between 500 mg and 1 g) post-termination of treatment. A regimen was described as “toxic” if more than one mouse died during or within 10 days following the final drug treatment, or anytime after the initiation of drug therapy whose tumor size at the time of death was below 1 g."}, "[3]": {"test_system": "Human L2987 lung carcinoma xenografts", "experiment": "Antitumor testing versus s.c. L2987 lung carcinoma xenografts in nude mice", "type": "in vivo", "conditions": "for T-C: tumor target 1.0 g", "description": "as §1, §2\n(§4) Tumors. Human L2987 lung and GEO colon carcinomas were maintained in nude mice by serial s.c. passage. All efficacy testing involved tumors implanted s.c. in nude mice.\n(§5) Antitumor Testing. A detailed description of the methods used to assess antitumor effects has been provided previously in Rose, W. C., Fairchild, C., and Lee, F. Y. F. Preclinical antitumor activity of two novel taxanes. Cancer Chemother. Pharmacol. 47: 97–105, 2001. […] Delays in tumor growth are also converted to log cell kill (LCK) values by methods described in the same article. Statistical evaluations of data were performed using Gehan's generalized Wilcoxon test for comparisons of time to reach tumor target size. Statistical significance was declared at P<0.05. Group sizes typically consisted of eight mice. Activity was defined as ≧1 LCK.\nas §3"}, "[4]": {"experiment": "Tolerability (body weight change, deaths, MTD) in nude mice bearing L2987 tumors", "type": "in vivo", "description": "as §1, §2, §3"}, "[5]": {"test_system": "Human GEO colon carcinoma xenografts", "experiment": "Antitumor testing versus s.c. GEO colon carcinoma xenografts in nude mice", "type": "in vivo", "set-up": "key: Treatment resulting in more than one death is described as “TOX” (i.e., toxic)", "conditions": "q3dx6 from Day 11", "description": "as §1, §2, §4, §5, §3"}, "[6]": {"test_system": "Human GEO colon carcinoma xenografts", "conditions": "known from earlier work; cited from earlier work"}, "[7]": {"conditions": "confirmatory study, q3dx6 from Day 20, Compound Ia 40 mg/kg/adm p.o."}, "[8]": {"conditions": "confirmatory study, q3dx6 from Day 20, Compound Ia 60 mg/kg/adm p.o."}, "[9]": {"conditions": "pilot study, q3dx4 from Day 22, Compound Ia 40 mg/kg/adm p.o."}, "[10]": {"conditions": "pilot study, q3dx4 from Day 22, Compound Ia 60 mg/kg/adm p.o."}},
  "data": [
    {"smiles": "COC(=O)OC12COC1CC(O)C1(C)C(=O)C(OC(C)=O)C3=C(C)C(OC(=O)C(O)C(NC(=O)OC(C)(C)C)C(C)(C)C)CC(O)(C(OC(=O)c4ccccc4)C21)C3(C)C", "note": "(centres unmarked) [Compound Ia]", "values": [
      {"measurement": "Clinical toxicity", "setting": "[1]", "value": "manageable toxicity"},
      {"measurement": "MTD", "setting": "[2]; p.o., q3dx6", "value": 60, "unit": "mg/kg/adm"},
      {"measurement": "Average body weight change", "setting": "[2]; q3dx6 from Day 11, Compound Ia 40 mg/kg/adm p.o.", "value": -2.6, "unit": "g"},
      {"measurement": "Average body weight change", "setting": "[2]; q3dx6 from Day 11, Compound Ia 60 mg/kg/adm p.o.", "value": -1.8, "unit": "g"},
      {"measurement": "dead/total", "setting": "[2]; q3dx6 from Day 11, Compound Ia 90 mg/kg/adm p.o.", "value": "(3/8)"},
      {"measurement": "LCK (log cell kill)", "setting": "[3]; [7]", "value": 0.5},
      {"measurement": "T-C", "setting": "[3]; [7]", "value": 14.5, "unit": "days"},
      {"measurement": "LCK (log cell kill)", "setting": "[3]; [8]", "value": 1.0},
      {"measurement": "T-C", "setting": "[3]; [8]", "value": 28.0, "unit": "days"},
      {"measurement": "LCK (log cell kill)", "setting": "[3]; [9]", "value": 0.2},
      {"measurement": "T-C", "setting": "[3]; [9]", "value": 5.5, "unit": "days"},
      {"measurement": "LCK (log cell kill)", "setting": "[3]; [10]", "value": 0.6},
      {"measurement": "T-C", "setting": "[3]; [10]", "value": 14.0, "unit": "days"},
      {"measurement": "Average body weight change", "setting": "[4]; [7]", "value": 1.5, "unit": "g"},
      {"measurement": "Average body weight change", "setting": "[4]; [8]", "value": -0.9, "unit": "g"},
      {"measurement": "MTD, cumulative exposure", "setting": "[4]; confirmatory study, 60 mg/kg/adm p.o. q3dx6, tolerated with minimal body weight loss", "value": 360, "unit": "mg/kg"},
      {"measurement": "historical MTD, cumulative exposure", "setting": "[4]; p.o., established using a schedule similar to q3dx4", "value": "approximately 300 mg/kg"},
      {"measurement": "Average body weight change", "setting": "[4]; [9]", "value": 0.7, "unit": "g"},
      {"measurement": "Average body weight change", "setting": "[4]; [10]", "value": 1.0, "unit": "g"},
      {"measurement": "LCK (log cell kill)", "setting": "[5]; Compound Ia 40 mg/kg/adm p.o.", "value": 0.3},
      {"measurement": "T-C", "setting": "[5]; Compound Ia 40 mg/kg/adm p.o., tumor target 1.0 g", "value": 4.0, "unit": "days"},
      {"measurement": "LCK (log cell kill)", "setting": "[5]; Compound Ia 60 mg/kg/adm p.o.", "value": 0.7},
      {"measurement": "T-C", "setting": "[5]; Compound Ia 60 mg/kg/adm p.o., tumor target 1.0 g", "value": 10.0, "unit": "days"},
      {"measurement": "LCK (log cell kill)", "setting": "[5]; Compound Ia 90 mg/kg/adm p.o.", "value": "TOX"},
      {"measurement": "T-C", "setting": "[5]; Compound Ia 90 mg/kg/adm p.o.", "value": "TOX"}
    ]},
    {"smiles": "COc1cc2ncnc(Nc3ccc(F)c(Cl)c3)c2cc1OCCCN1CCOCC1", "note": "[gefitinib]", "values": [
      {"measurement": "Responsiveness of the GEO tumor model", "setting": "[6]", "value": "responsive"}
    ]}
  ]
}
